Key:
Test in all cases: Herbicidal activity, pot culture method (primary and secondary screening test)
Format in all cases: in vivo
Conditions in all cases: primary screening, pot culture, 150 g/ha, sprayed at 3-leaf stage, result 15 days later
[1] = system: amaranthus retroflexus
Excerpt: (§1) This test example is for describing the herbicidal activity inhibition ratio (%) (the dose is 150 g/ha) of the compound with a structure shown in Formula (I). Primary screening test (pot culture method): The test targets are abutilon theophrasti, digitaria sanguinalis, amaranthus retroflexus, echinochloa crusgalli, eclipta prostrata and setaria viridis. Take flowerpots with an inner diameter of 6 cm, put composite soil (vegetable garden soil:seedling matrix=1:2, v/v) into them till 3⁄4 of flowerpot height, directly sow the above six weed targets (budding rate>85%), cover them with 0.2 cm thick soil, and keep them for future use when the weeds grow to 3-leaf stage. Each compound is dissolved in N,N-dimethylformamide at a dose of 150 g/ha and diluted with distilled water into a 0.2 g/L solution. The solution is sprayed through an automatic spray tower. After the solution on weed leaves is aired dry, the flowerpots are moved into a greenhouse for cultivation. The result is investigated 15 days later. By the same method adopted in primary screening test, a secondary screening test is done on some typical compounds, such as: 5, 6, 20, 21, 23, 34, 47, 65, 66, 70 and 91 at a reduced dose, and the test result is compared with mesotrione which is commercially available and has a good herbicidal effect. The test method is same as that adopted in primary screening test. Mesotrione is bought from Hubei […] Chemical Co., Ltd.

[2] = system: eclipta prostrata
Excerpt: as §1

[3] = system: echinochloa crusgalli
Excerpt: as §1

[4] = system: digitaria sanguinalis
Excerpt: as §1

[5] = system: setaria viridis
Excerpt: as §1

[6] = system: abutilon theophrasti
Excerpt: as §1

Row | SMILES | herbicidal activity inhibition ratio (%), Amaranthus retroflexus [1] | herbicidal activity inhibition ratio (%), Eclipta prostrata [2] | herbicidal activity inhibition ratio (%), Echinochloa crusgalli [3] | herbicidal activity inhibition ratio (%), Digitaria sanguinalis [4] | herbicidal activity inhibition ratio (%), Setaria viridis [5] | herbicidal activity inhibition ratio (%), Abutilon theophrasti [6]
1 | Cn1c(=O)n(-c2ccccc2Br)c(=O)c2cc(C(=O)C3=C(O)CCCC3=O)ccc21 [Compound 27] | 100% | 80% | 90% | 90% | 60% | 83%
2 | Cn1c(=O)n(-c2ccccc2Br)c(=O)c2cc(C(=O)C3=C(O)CC(C)(C)CC3=O)ccc21 [Compound 28] | 95% | 83% | 85% | 95% | 35% | 100%
3 | COc1ccccc1-n1c(=O)c2cc(C(=O)C3=C(O)CCCC3=O)ccc2n(C)c1=O [Compound 29] | 100% | 65% | 90% | 88% | 60% | 90%
4 | Cn1c(=O)n(-c2ccc(C(F)(F)F)cc2)c(=O)c2cc(C(=O)C3=C(O)CCCC3=O)ccc21 [Compound 30] | 100% | 60% | 85% | 60% | 30% | 100%
5 | Cn1c(=O)n(-c2ccc(C(F)(F)F)cc2)c(=O)c2cc(C(=O)C3=C(O)CC(C)(C)CC3=O)ccc21 [Compound 31] | 80% | 55% | 40% | 60% | 10% | 60%
6 | Cn1c(=O)n(-c2c(Cl)cccc2Cl)c(=O)c2cc(C(=O)C3=C(O)CCCC3=O)ccc21 [Compound 32] | 85% | 50% | 80% | 80% | 40% | 80%
7 | Cc1ccc(Cl)cc1-n1c(=O)c2cc(C(=O)C3=C(O)CCCC3=O)ccc2n(C)c1=O [Compound 33] | 90% | 83% | 85% | 80% | 60% | 85%
8 | Cn1c(=O)n(-c2ccccc2)c(=O)c2cc(C(=O)C3=C(O)CCCC3=O)ccc21 [Compound 35] | 100% | 70% | 65% | 65% | 50% | 80%
9 | CC(C)c1ccc(-n2c(=O)c3cc(C(=O)C4=C(O)CCCC4=O)ccc3n(C)c2=O)cc1 [Compound 36] | 35% | 0% | 25% | 100% | 50% | 50%
10 | Cc1ccc(Cl)cc1-n1c(=O)c2cc(C(=O)C3=C(O)CC(C)(C)CC3=O)ccc2n(C)c1=O [Compound 37] | 95% | 80% | 80% | 83% | 40% | 65%
11 | Cn1c(=O)n(-c2ccccc2C(F)(F)F)c(=O)c2cc(C(=O)C3=C(O)CCCC3=O)ccc21 [Compound 38] | 100% | 75% | 90% | 85% | 80% | 90%
12 | Cn1c(=O)n(-c2ccccc2OC(F)(F)F)c(=O)c2cc(C(=O)C3=C(O)CCCC3=O)ccc21 [Compound 39] | 98% | 85% | 70% | 85% | 80% | 95%
13 | Cn1c(=O)n(-c2ccccc2)c(=O)c2cc(C(=O)C3=C(O)CC(C)(C)CC3=O)ccc21 [Compound 40] | 95% | 80% | 78% | 85% | 45% | 100%
14 | Cn1c(=O)n(-c2ccccc2C(F)(F)F)c(=O)c2cc(C(=O)C3=C(O)CC(C)(C)CC3=O)ccc21 [Compound 41] | 95% | 80% | 73% | 85% | 25% | 100%
15 | CC1CC(=O)C(C(=O)c2ccc3c(c2)c(=O)n(-c2ccccc2)c(=O)n3C)=C(O)C1 (stereo not drawn) [Compound 42] | 100% | 83% | 88% | 93% | 60% | 98%
16 | CCn1c(=O)n(-c2ccc(Cl)cc2)c(=O)c2cc(C(=O)C3=C(O)CCCC3=O)ccc21 [Compound 43] | 98% | 83% | 80% | 60% | 50% | 65%
17 | Cn1c(=O)n(-c2cccc3ccccc23)c(=O)c2cc(C(=O)C3=C(O)CCCC3=O)ccc21 [Compound 44] | 100% | 0% | 65% | 75% | 60% | 85%
18 | Cn1c(=O)n(-c2ccc([N+](=O)[O-])cc2)c(=O)c2cc(C(=O)C3=C(O)CCCC3=O)ccc21 [Compound 45] | 90% | 83% | 50% | 40% | 10% | 60%
19 | CC(C)c1cccc(C(C)C)c1-n1c(=O)c2cc(C(=O)C3=C(O)CCCC3=O)ccc2n(C)c1=O [Compound 46] | 100% | 70% | 60% | 55% | 20% | 35%
20 | COc1ccccc1-n1c(=O)c2cc(C(=O)C3=C(O)CC(C)(C)CC3=O)ccc2n(C)c1=O [Compound 48] | 95% | 85% | 85% | 85% | 50% | 50%
21 | Cn1c(=O)n(-c2ccc(OC(F)(F)F)cc2)c(=O)c2cc(C(=O)C3=C(O)CC(C)(C)CC3=O)ccc21 [Compound 49] | 95% | 80% | 65% | 90% | 50% | 100%
